Measured values as given in patent US4950739A (priority 1988, dated 1990).
Read-outs that look alike come from different tables or passages of the source.

Key:
[1] = test system: low-threshold calcium channel in central neurons; settings: Tang C-M., et al., Science, 240:213; cited from earlier work
[2] = test system: calcium channel in vesicles; assay: Calcium uptake into quin-2-loaded vesicles (fluorescence)
[3] = test system: calcium channel reconstituted in a lipid bilayer; type: biochemical, guinea pig; settings: for concentration at which single channels were blocked: cerebellar-origin channel, 80 mM BaCl2 cis / 120 mM CsCl trans; for calcium channel activity of the reconstituted channel: concentration not given
[4] = test system: low-threshold calcium channel; assay: Low-threshold calcium channel isolated on amiloride gel, lipid bilayer; type: biochemical, Guinea pig; settings: 250micromolar
Description: Guinea pig cerebellar material was processed as in Example 7. It was then purified according to the method of Example 8 except that the amiloride gel chromatography was performed after the factor-coupled gel chromatography. (The latter chromatographic purification was thus used to remove the high-threshold channel recognized by the active factor of the present invention.)
The low-threshold calcium channel was eluted from the amiloride gel using 400 mM sucrose, 10 mM HEPES (pH 7.4) containing 1 mM amiloride.
The channel activity of the thus-purified gel was tested as described above by the lipid bilayer technique. The channel has an estimated conductance of about 8 pS, is characterized by rapid openings (of the order of 1-100 msec at […]), is rapidly inactivated (within about 1 sec at the same depolarization), and was blocked by cadmium (250micromolar).

N=C(N)NC(=O)c1nc(Cl)c(N)nc1N [amiloride, 3,5-diamino-N-(aminoiminomethyl)-6-chloropyrazine carboxamide]
block of low-threshold calcium channel [1]: specifically blocks

[Cd] [cadmium]
uptake of calcium into the vesicles ([2]; 50 micromolar, calcium 2 mM additions): blocked
intravesicular fluorescence over time ([2]; 100 micromolar before addition of 2 mM CaCl2): did not increase with time and remained at the baseline
concentration at which single channels were blocked [3]: less than 100 micromolar
calcium channel activity of the reconstituted channel [3]: blocked
calcium channel activity of the reconstituted channel ([3]; listed as Cd^++): completely blocked
low-threshold channel activity [4]: blocked

[Co] [cobalt]
Calcium Conductance ([3]; 100 mM CaCl2 pH 7.5 and 20 M × 10^-6 Co^++ outside only, voltage range ±200): none
concentration at which single channels were blocked [3]: less than 100 micromolar
calcium channel activity of the reconstituted channel [3]: blocked
calcium channel activity of the reconstituted channel ([3]; listed as Co^++): completely blocked

COC(=O)C1=C(C)NC(C)=C(C(=O)OC)C1c1ccccc1[N+](=O)[O-] [nifedipine]
effect on the isolated calcium channels ([3]; 5×10^-6 M): neither blocker had an effect
